Data as given in ChEMBL document CHEMBL1201862, “PubChem BioAssay data set” (2004).
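How tested: cells in 96-well plates exposed to compound for 48 hours at five concentrations. GI50 is the concentration that inhibits growth by half.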 The source made the active and inactive calls. Rule as the data show it: active = GI50 up to about 1.1 µM and inactive = higher.

Legend:
Experiment in all cases: NCI anticancer screen, dose series, 48 h
SK-MEL-5 = test system: SK-MEL-5
EKVX = test system: EKVX
HCC 2998 = test system: HCC 2998
K562 = test system: K562
RXF 393 = test system: RXF 393
SR = test system: SR
Malme-3M = test system: Malme-3M
SF-268 = test system: SF-268
SK-MEL-28 = test system: SK-MEL-28
SNB-19 = test system: SNB-19
KM12 = test system: KM12
MDA-N = test system: MDA-N
HCT-15 = test system: HCT-15
BT-549 = test system: BT-549
CAKI-1 = test system: CAKI-1
ACHN = test system: ACHN
CCRF-CEM = test system: CCRF-CEM
M14 = test system: M14
HOP-92 = test system: HOP-92

Structure (SMILES)	GI50 (SK-MEL-5)	GI50 (EKVX)	GI50 (HCC 2998)	GI50 (K562)	GI50 (RXF 393)	GI50 (SR)	GI50 (Malme-3M)	GI50 (SF-268)	GI50 (SK-MEL-28)	GI50 (SNB-19)	GI50 (KM12)	GI50 (MDA-N)	GI50 (HCT-15)	GI50 (BT-549)	GI50 (CAKI-1)	GI50 (ACHN)	GI50 (CCRF-CEM)	GI50 (M14)	GI50 (HOP-92)
O=C1NC(=S)N/C1=C\c1ccc(Sc2ccccc2C(=O)O)s1	> 100 µM (inactive)	> 100 µM (inactive)	> 100 µM (inactive)	93.5 µM (inactive)	> 100 µM (inactive)	> 100 µM (inactive)	> 100 µM (inactive)	> 100 µM (inactive)	> 100 µM (inactive)	> 100 µM (inactive)	> 100 µM (inactive)	> 100 µM (inactive)	> 100 µM	> 100 µM (inactive)	70.3 µM (inactive)	> 100 µM (inactive)			
Cc1cccc(/C=N/NC(=S)NC(C)(C)C)n1	56.1 µM (inactive)		56.1 µM (inactive)	5.15 µM (inactive)		23.7 µM (inactive)	> 100 µM (inactive)	41 µM (inactive)	> 100 µM (inactive)	> 100 µM (inactive)	> 100 µM (inactive)	> 100 µM (inactive)	24.8 µM	> 100 µM (inactive)	> 100 µM (inactive)	35.6 µM (inactive)	1.64 µM (inactive)	88.7 µM (inactive)	
O=c1[nH][nH]c(=O)n1CCCCCCn1c(=O)[nH][nH]c1=O	> 100 µM (inactive)	> 100 µM (inactive)	> 100 µM (inactive)	> 100 µM (inactive)	> 100 µM (inactive)	> 100 µM (inactive)	> 100 µM (inactive)	> 100 µM (inactive)	> 100 µM (inactive)	> 100 µM (inactive)	> 100 µM (inactive)	> 100 µM (inactive)	> 100 µM	> 100 µM (inactive)	> 100 µM (inactive)		> 100 µM (inactive)	> 100 µM (inactive)	
OCC1OC(c2cccc3cc(O)c(O)cc23)CC1O (stereo unspecified)		45.4 µM (inactive)	> 100 µM (inactive)	> 100 µM (inactive)				93.1 µM (inactive)	> 100 µM (inactive)	> 100 µM (inactive)	> 100 µM (inactive)	> 100 µM (inactive)	> 100 µM	> 100 µM (inactive)		> 100 µM (inactive)		> 100 µM (inactive)	> 100 µM (inactive)
OC(COC(c1ccccc1)(c1ccccc1)c1ccccc1)C(O)CC1SCCS1 (stereo unspecified)	16.7 µM (inactive)	11.2 µM (inactive)		13.5 µM (inactive)	10.2 µM (inactive)	0.0275 µM (active)	10 µM (inactive)	25.4 µM (inactive)	21.5 µM (inactive)	21.7 µM (inactive)	13 µM (inactive)	19 µM (inactive)	21.8 µM	20 µM (inactive)	21.3 µM (inactive)	18.6 µM (inactive)	21.3 µM (inactive)	29.6 µM (inactive)	
COC(=O)c1ccccc1C1=C([N+](=O)[O-])C(c2ccccc2)C(C#N)=C(N)O1 (stereo unspecified)	> 100 µM (inactive)	10.5 µM (inactive)	> 100 µM (inactive)	33.7 µM (inactive)	30.2 µM (inactive)	36.3 µM (inactive)		31.8 µM (inactive)	> 100 µM (inactive)	> 100 µM (inactive)	56 µM (inactive)	> 100 µM (inactive)	19.8 µM			54.7 µM (inactive)	30.1 µM (inactive)	> 100 µM (inactive)	50.1 µM (inactive)
COc1cc(C2SCC(=O)N2c2ccc(-n3c(-c4ccccc4)nc4ccccc4c3=O)cc2)cc(OC)c1OC (stereo unspecified)	68.9 µM (inactive)	> 100 µM (inactive)	> 100 µM (inactive)	> 100 µM (inactive)		45.4 µM (inactive)		82.4 µM (inactive)	> 100 µM (inactive)	> 100 µM (inactive)	97.3 µM (inactive)	> 100 µM (inactive)	71.1 µM	> 100 µM (inactive)	> 100 µM (inactive)	> 100 µM (inactive)	69.7 µM (inactive)		28.6 µM (inactive)
C/C(=N\Nc1ccc([N+](=O)[O-])cc1[N+](=O)[O-])c1sc(-n2nc(-c3ccccc3)cc2-c2ccccc2)nc1C	34.4 µM (inactive)	26.5 µM (inactive)	32.9 µM (inactive)			18.3 µM (inactive)	76.7 µM (inactive)	44.2 µM (inactive)	90.2 µM (inactive)	93.5 µM (inactive)	11.3 µM (inactive)	46.8 µM (inactive)	38.6 µM	36.9 µM (inactive)	20 µM (inactive)	16.6 µM (inactive)	19.5 µM (inactive)	56.4 µM (inactive)	23.9 µM (inactive)
CCOC(=O)C1(C#N)CC1	> 100 µM (inactive)	> 100 µM (inactive)	> 100 µM (inactive)	> 100 µM (inactive)	7.94 µM (inactive)	> 100 µM (inactive)	> 100 µM (inactive)	> 100 µM (inactive)	> 100 µM (inactive)	> 100 µM (inactive)	> 100 µM (inactive)	> 100 µM (inactive)	> 100 µM	> 100 µM (inactive)	> 100 µM (inactive)	> 100 µM (inactive)	> 100 µM (inactive)	> 100 µM (inactive)	
